Our source for the MIC and EC50 values is ChEMBL document CHEMBL5143624, “WCK 1152, WCK 1153: Discovery and structure activity relationship for the treatment of resistant pneumococcal and staphylococcal respiratory infections” (Bioorg Med Chem Lett, 2022).

Assay [1] relates to Streptococcus pneumoniae. The assay is described as follows: Antibacterial activity against Streptococcus pneumoniae assessed as inhibition of bacterial growth incubated for 18 hrs by CLSI based serial agar dilution method. The class given is functional. The settings on record: 18 h. On the technique in general: Agar dilution tests growth on a series of plates holding different concentrations.

Assay [2] concerns Staphylococcus aureus. The assay is described as follows: Antibacterial activity against methicillin resistant Staphylococcus aureus assessed as inhibition of bacterial growth incubated for 18 hrs by CLSI based serial agar dilution method. Type of assay: functional.
For assay [3], the system named is Streptococcus pneumoniae. Put plainly: Antibacterial activity against fluoroquinolone efflux positive Streptococcus pneumoniae 706 assessed as inhibition of bacterial growth incubated for 18 hrs by CLSI based serial agar dilution method. The class given is functional.
Assay [4] has as its system Streptococcus pneumoniae. Put plainly: Antibacterial activity against Streptococcus pneumoniae 5844 harbouring moxifloxacin resistant DNA gyrase and topoisomerase IV mutant assessed as inhibition of bacterial growth incubated for 18 hrs by CLSI based serial agar dilution method. The settings on record: Streptococcus pneumoniae, 5844, 18 h. Type of assay: functional.
For assay [5], the system named is Streptococcus pneumoniae. The assay is described as follows: Antibacterial activity against beta-lactams, macrolide and fluoroquinolone resistant Streptococcus pneumoniae 718 assessed as inhibition of bacterial growth incubated for 18 hrs by CLSI based serial agar dilution method. Type of assay: functional.
The test system of assay [6] is Staphylococcus aureus. Put plainly: Antibacterial activity against methicillin resistant Staphylococcus aureus 032 assessed as inhibition of bacterial growth incubated for 18 hrs by CLSI based serial agar dilution method. The class given is functional.
Assay [7] has as its system Streptococcus pneumoniae. Put plainly: Antibacterial activity against beta-lactams, macrolide and fluoroquinolone resistant Streptococcus pneumoniae 718 infected in po dosed Swiss mouse septicemia model assessed as protective dose administered on 1 and 5 hrs post infection and measured on day 7. Type of assay: functional, organism-based.
Setting [8] is: Streptococcus pneumoniae, read-out: MIC.
Where [9] appears, read: Staphylococcus aureus, read-out: MIC.
Setting [10] is: Streptococcus pneumoniae, 718, 18 h, read-out: MIC.
The mark [11] stands for this setting: Staphylococcus aureus, 032, 18 h, read-out: MIC.

What is called MIC is the lowest concentration that inhibits growth of the organism.

The structures appear in SMILES notation. In brackets after ≈: the same amount, converted by molar mass.

In the case of `CC1(C)CN(c2c(F)c(N)c3c(=O)c(C(=O)O)cn(C4CC4)c3c2F)CCC1N` (stereo not given), the MIC with Streptococcus pneumoniae [1] (setting [8]) is 0.1 µg/mL (≈ 0.246 µM); in the assay with Staphylococcus aureus [2] (setting [9]), 3.12 µg/mL (≈ 7.68 µM).
As to `COc1c(N2CC(C)C(N)C(C)C2)c(F)cc2c(=O)c(C(=O)O)cn(C3CC3)c12` (trans isomer), the MIC in the assay on Streptococcus pneumoniae [1] is 0.2 µg/mL (≈ 0.496 µM); in the assay on Staphylococcus aureus [2], 0.05 µg/mL (≈ 0.124 µM).
With `CCC1(CC)CN(c2c(F)cc3c(=O)c(C(=O)O)cn(C4CC4)c3c2OC)CCC1N` (stereo not given), the MIC is < 0.4 µg/mL in the assay on Streptococcus pneumoniae [3] and 6.25 µg/mL (≈ 14.5 µM) in the assay on Streptococcus pneumoniae [4].
Take `CC1(C)CN(c2cc3c(cc2F)c(=O)c(C(=O)O)cn3C2CC2)CCC1N` (stereo not given): the MIC in the assay on Streptococcus pneumoniae [1] (setting [8]) worked out at 0.8 µg/mL (≈ 2.14 µM); in the assay on Staphylococcus aureus [2] (setting [9]), 12.5 µg/mL (≈ 33.5 µM).
For the compound `COc1c(N2CCC(N)C(C)(C)C2)c(F)c(N)c2c(=O)c(C(=O)O)cn(-c3ccc(F)cc3F)c12` (stereo not given), the MIC in the assay on Streptococcus pneumoniae [1] (setting [8]) worked out at 3.12 µg/mL (≈ 6.36 µM); in the assay on Staphylococcus aureus [2] (setting [9]), 12.5 µg/mL (≈ 25.5 µM).
The like results for `Cc1c(F)c(N2CCC(N)C(C)(C)C2)cc2c1c(=O)c(C(=O)O)cn2C1CC1` (stereo not given) were, in that order, 0.8 µg/mL (≈ 2.06 µM) and > 12.5 µg/mL.
For `Cc1c(N2CCC(O)C(C)C2)c(F)cc2c(=O)c(C(=O)O)cn(C3CC3)c12` (stereo in doubt; form 1), the MIC in the assay with Streptococcus pneumoniae [5] (setting [10]) and in the assay on Staphylococcus aureus [6] (setting [11]) was 0.2 µg/mL (≈ 0.534 µM) each time.
`CNC1CCN(c2c(F)cc3c(=O)c(C(=O)O)cn(C4CC4)c3c2OC)CC1(C)C` (stereo not given): the MIC with Streptococcus pneumoniae [1] (setting [8]) turned out to be 1.56 µg/mL (≈ 3.74 µM); with Staphylococcus aureus [2] (setting [9]), 0.2 µg/mL (≈ 0.479 µM); in the assay on Streptococcus pneumoniae [3] it was 1.56 µg/mL (≈ 3.74 µM).
For the compound `CONC1CCN(c2c(F)cc3c(=O)c(C(=O)O)cn(C4CC4)c3c2OC)CC1(C)C` (stereo not given), the minimal inhibitory concentration (MIC) was 0.8 µg/mL (≈ 1.85 µM) with Streptococcus pneumoniae [1] (setting [8]), 0.1 µg/mL (≈ 0.231 µM) in the assay on Staphylococcus aureus [2] (setting [9]), 0.8 µg/mL (≈ 1.85 µM) with Streptococcus pneumoniae [3] and > 6.25 µg/mL in the assay with Streptococcus pneumoniae [4].
On to `CCC1CN(c2c(F)cc3c(=O)c(C(=O)O)cn(C4CC4)c3c2OC)CCC1NC` (stereo not given), for which the MIC turned out to be 1.56 µg/mL (≈ 3.74 µM) in the assay on Streptococcus pneumoniae [1] (setting [8]) and 0.2 µg/mL (≈ 0.479 µM) in the assay with Staphylococcus aureus [2] (setting [9]).
On to `COc1c(N2CCC(NC3CC3)C(C)(C)C2)c(F)cc2c(=O)c(C(=O)O)cn(C3CC3)c12` (stereo not given), for which the minimal inhibitory concentration (MIC) in the assay with Streptococcus pneumoniae [1] (setting [8]) amounted to 0.8 µg/mL (≈ 1.8 µM); in the assay on Staphylococcus aureus [2] (setting [9]), 0.2 µg/mL (≈ 0.451 µM); in the assay with Streptococcus pneumoniae [3], 0.8 µg/mL (≈ 1.8 µM).
On to `Cc1c(F)c(N2CCC(N)C(C)(C)C2)c(F)c2c1c(=O)c(C(=O)O)cn2C1CC1` (stereo not given), for which the figures for the MIC with Streptococcus pneumoniae [1] (setting [8]) and in the assay on Staphylococcus aureus [2] (setting [9]) were 0.1 µg/mL (≈ 0.247 µM) and 3.12 µg/mL (≈ 7.7 µM), respectively.
In the case of `COc1c(N2CCNC(C)C2)c(F)cc2c(=O)c(C(=O)O)cn(C3CC3)c12` (stereo not given) [GATIFLOXACIN], in the assay with Streptococcus pneumoniae [7], the EC50 was > 100 mg/kg.
Consider `CCC1(C)CN(c2c(F)cc3c(=O)c(C(=O)O)cn(C4CC4)c3c2OC)CCC1NC1CC1` (stereo not given), for which the MIC was 0.4 µg/mL (≈ 0.874 µM) with Streptococcus pneumoniae [3] and > 6.25 µg/mL with Streptococcus pneumoniae [4].
As for `COc1c(N2CCC(N)C(C)(C)C2)c(F)c(N)c2c(=O)c(C(=O)O)cn(C3CC3)c12` (stereo not given), the MIC in the assay with Streptococcus pneumoniae [1] (setting [8]) is 0.2 µg/mL (≈ 0.478 µM); with Staphylococcus aureus [2] (setting [9]) it was 3.12 µg/mL (≈ 7.46 µM).
For `Cc1c(N2CCC(N)C(C)(C)C2)c(F)cc2c(=O)c(C(=O)O)cn(C3CC3)c12` (racemic), the MIC in the assay on Streptococcus pneumoniae [5] (18 h) and in the assay on Staphylococcus aureus [6] (18 h) was 1.56 µg/mL (≈ 4.03 µM) each time.
As to `Cc1c(N2CCC(O)C(C)(C)C2)c(F)cc2c(=O)c(C(=O)O)cn(C3CC3)c12.Cl` (racemic), the MIC in the assay on Streptococcus pneumoniae [5] (setting [10]) and in the assay on Staphylococcus aureus [6] (setting [11]) was 0.8 µg/mL throughout.
With `CCNC1C(C)CN(c2c(F)cc3c(=O)c(C(=O)O)cn(C4CC4)c3c2OC)CC1C` (trans isomer), the minimal inhibitory concentration (MIC) in the assay on Streptococcus pneumoniae [1] (setting [8]) was found to be 1.56 µg/mL (≈ 3.62 µM); in the assay on Staphylococcus aureus [2], 0.012 µg/mL (≈ 0.0278 µM).
In the case of `C[C@H]1COc2c(N3CCN(C)CC3)c(F)cc3c(=O)c(C(=O)O)cn1c23.C[C@H]1COc2c(N3CCN(C)CC3)c(F)cc3c(=O)c(C(=O)O)cn1c23.O` [LEVOFLOXACIN], in the assay on Staphylococcus aureus [6] (setting [11]), the MIC came to 6.25 µg/mL. The EC50 with Streptococcus pneumoniae [7] was > 100 mg/kg.
For `CCNC1CCN(c2c(F)cc3c(=O)c(C(=O)O)cn(C4CC4)c3c2OC)CC1(C)C` (stereo not given), the MIC in the assay with Streptococcus pneumoniae [1] (setting [8]) amounted to 1.56 µg/mL (≈ 3.62 µM); in the assay with Staphylococcus aureus [2] (setting [9]), 0.2 µg/mL (≈ 0.463 µM); with Streptococcus pneumoniae [3], 1.56 µg/mL (≈ 3.62 µM).
`CC1(C)CN(c2ccc3c(=O)c(C(=O)O)cn(-c4ccc(F)cc4F)c3n2)CCC1N` (stereo not given): the MIC in the assay with Streptococcus pneumoniae [1] (setting [8]) is 1.56 µg/mL (≈ 3.64 µM); with Staphylococcus aureus [2] (setting [9]) it was > 12.5 µg/mL.
Taken in the same sequence, the figures for `COc1c(N2CCC(N)C(C)C2)c(F)cc2c(=O)c(C(=O)O)cn(C3CC3)c12` (stereo not given) were 0.2 µg/mL (≈ 0.514 µM) and 0.05 µg/mL (≈ 0.128 µM).
As for `COc1c(N2CC(C)C(N(C)C)C(C)C2)c(F)cc2c(=O)c(C(=O)O)cn(C3CC3)c12` (stereo not given), the MIC with Streptococcus pneumoniae [1] (setting [8]) amounted to 0.2 µg/mL (≈ 0.463 µM); with Staphylococcus aureus [2] (setting [9]), 0.1 µg/mL (≈ 0.232 µM); in the assay with Streptococcus pneumoniae [3], 0.2 µg/mL (≈ 0.463 µM).
Regarding `CC1(C)CN(c2c(F)cc3c(=O)c(C(=O)O)cn(C4CC4)c3c2F)CCC1N` (stereo not given), the figures for the MIC with Streptococcus pneumoniae [1] (setting [8]) and in the assay on Staphylococcus aureus [2] (setting [9]) were 0.4 µg/mL (≈ 1.02 µM) and 3.12 µg/mL (≈ 7.97 µM), respectively.
With `CNC1CCN(c2c(F)cc3c(=O)c(C(=O)O)cn(C4CC4)c3c2OC)CC1C` (stereo not given), the MIC turned out to be 1.56 µg/mL (≈ 3.87 µM) in the assay on Streptococcus pneumoniae [1] (setting [8]) and 0.2 µg/mL (≈ 0.496 µM) in the assay with Staphylococcus aureus [2] (setting [9]).
